Laboratory results published in patent US20050019926A1, “Compositions of nucleic acids and cationic aminoglycosides and methods of using and preparing the same” (Aradigm Corporation, priority 2001, published 2005).

What was measured:
plasmid DNA = assay: agarose gel electrophoresis (gel retardation) of nucleic acid-aminoglycoside complexes; format: binding; settings: plasmid DNA complexed with 5-100 mM aminoglycoside
Protocol: Plasmid DNA and the three different prototype aminoglycosides (neomycin, gentamycin, tobramycin) were diluted to 2× the final desired concentration in separate vials. In formulations with a molar excess of DNA, the diluted aminoglycoside solution was added to the DNA using a pipette with light vortexing. In formulations with a molar excess of aminoglycoside, the DNA was added to the aminoglycoside solution with light vortexing. The formulations were allowed to rest for about 30 minutes before characterization. Complexes of Nucleic Acid-Aminoglycoside were prepared according to the above described method and then analyzed using agarose gel electrophoresis to verify that the nucleic acids were being complexed with the aminoglycosides. Specifically, complexes having varying doses of DNA to three different aminoglycosides were prepared such that plasmid DNA was complexed with 5-100 mM of Neomycin, Tobramycin and Gentamicin.

[1] = intravenous and subcutaneous; patients with normal renal function; Physicians' Desk Reference, 2001; cited from earlier work

Compound | gel retardation (complexation of DNA with aminoglycoside) (plasmid DNA) | high dose delivered without adverse or unacceptable therapeutic effects [1]
NC[C@H]1O[C@H](O[C@H]2[C@H](O)[C@@H](O[C@H]3O[C@H](CO)[C@@H](O)[C@H](N)[C@H]3O)[C@H](N)C[C@@H]2N)[C@H](N)C[C@@H]1O [Tobramycin, tobramycin] | dose-dependant increase in gel retardation | 
NCC[C@H](O)C(=O)N[C@@H]1C[C@H](N)[C@@H](O[C@H]2O[C@H](CN)[C@@H](O)[C@H](O)[C@H]2O)[C@H](O)[C@H]1O[C@H]1O[C@H](CO)[C@@H](O)[C@H](N)[C@H]1O [amikacin] |  | 15 mg/kg of body weight per day
Gentamicin | dose-dependant increase in gel retardation | 5 mg/kg of body weight per day
neomycin | dose-dependant increase in gel retardation | 
